For one test, the target named is T1, 5-HT7R (Homo sapiens, UniProt P34969).
T1 construct: expressed in transfected cells
Put plainly: [3H]-5-CT radioligand binding assay, HEK293 cells. As to conditions: mean of three experiments. How it is done:
(§1) All experiments were carried out according to the previously published procedures.[41]−[43] HEK293 cells stably expressing human 5-HT1A, 5-HT6, 5-HT7b, and D2L receptors (prepared with the use of Lipofectamine 2000) or CHO-K1 cells with plasmid containing the sequence coding for the human serotonin 5-HT2A receptor (PerkinElmer) were maintained at 37 °C in a humidified atmosphere containing 5% CO2 and grown in Dulbecco’s modified Eagle’s medium containing 10% dialyzed fetal bovine serum and 500 μg/mL G418 sulfate. For membrane preparation, cells were cultured in 150 cm^2 flasks, grown to 90% confluence, washed twice with prewarmed to 37 °C phosphate buffered saline (PBS), and centrifuged (200g) in PBS containing 0.1 mM EDTA and 1 mM dithiothreitol. Prior to membrane preparation, pellets were stored at −80 °C. Cell pellets were thawed and homogenized in 10 volumes of assay buffer using an Ultra Turrax tissue homogenizer and centrifuged twice at 35 000g for 15 min at 4 °C, with incubation for 15 min at 37 °C between the centrifugations. The composition of the assay buffers was experimentally selected to achieve the maximum signal window (more details in Supporting Information). All assays were carried out in a total volume of 200 μL in 96-well plates for 1 h at 37 °C except 5-HT1AR and 5-HT2AR which were incubated at room temperature and 27 °C, respectively. The process of equilibration was terminated by rapid filtration through Unifilter plates with a 96-well cell harvester, and radioactivity retained on the filters was quantified on a Microbeta plate reader (PerkinElmer, USA). For displacement studies the assay samples contained the following as radioligands (PerkinElmer, USA): 2.5 nM [^3H]-8-OH-DPAT (135.2 Ci/mmol) for 5-HT1AR; 1 nM [^3H]-ketanserin (53.4 Ci/mmol) for 5-HT2AR; 2 nM [^3H]-LSD (83.6 Ci/mmol) for 5-HT6R; 0.8 nM [^3H]-5-CT (39.2 Ci/mmol) for 5-HT7R or 2.5 nM [^3H]-raclopride (76.0 Ci/mmol) for D2LR. Nonspecific binding was defined in the presence of 10 μM 5-HT in 5-HT1AR and 5-HT7R binding experiments, whereas 20 μM mianserin, 10 μM methiothepine, and 10 μM haloperidol were used in 5-HT2AR, 5-HT6R, and D2LR assays, respectively. Each compound was tested in triplicate at seven concentrations (10^–10–10^–4 M). The inhibition constants (Ki) were calculated from the Cheng–Prusoff equation.[44]

Test [1] addresses T2, 5-HT6R (Homo sapiens, UniProt P50406). The test can be described thus: [3H]-LSD radioligand binding assay, HEK293 cells stably expressing human 5-HT6R. Further details: expressed in transfected cells. The note with it: mean of three independent experiments. How it is done: Final compounds were evaluated in the [^3H]-LSD binding assay using HEK293 cells with stable expression of human 5-HT6R. […] Because the fluorine atom might affect the affinity at target protein as well as physicochemical and pharmacokinetic properties of compound,[22] fluorine substitution at the 2-phenyl ring was applied. […] The analysis of the binding mode of 18 and 28 (Figure 2A) confirmed that the 2-phenyl moiety is placed in the hydrophobic cavity between transmembrane domains (TMs) 4–6.
as §1

Test [2] deals with T2, 5-HT6R. The test can be described thus: Inhibition of 5-CT-stimulated cAMP production in 1321N1 cells. The format is cell-based. Further details: expressed in transfected cells. As to conditions: antagonism of 5-CT (1000 nM)-stimulated cAMP. How it is done: The effect of compounds 18, 22, 27, and 28 on adenylate cyclase was examined in 1321N1 cells expressing the 5-HT6R.
The properties of compounds 18, 22, 27, 28 to inhibit cAMP production induced by 5-CT (1000 nM), a 5-HT6R agonist, were evaluated. Compounds were tested in triplicate at eight concentrations (10^–11–10^–4 M). The level of cAMP was measured using frozen recombinant 1321N1 cells expressing the human serotonin 5-HT6R (PerkinElmer). Total cAMP was measured using the LANCE cAMP detection kit (PerkinElmer), according to the manufacturer’s recommendations. For quantification of cAMP levels, 2000 cells/well (5 μL) were incubated with a mixture of compounds (5 μL) for 30 min at room temperature in 384-well white opaque microtiter plate. After incubation, the reaction was stopped and cells were lysed by the addition of 10 μL of working solution (5 μL of Eu-cAMP and 5 μL of ULight-anti-cAMP) for 1 h at room temperature. Time-resolved fluorescence resonance energy transfer (TR-FRET) was detected by an Infinite M1000 Pro (Tecan) using instrument settings from LANCE cAMP detection kit manual. Kb values were calculated from Cheng–Prusoff equation specific for the analysis of functional inhibition curves: Kb = IC50/(1 + A/EC50) where A represents agonist concentration, IC50 the concentration of antagonist producing a 50% reduction in the response to agonist, and EC50 the agonist concentration which causes a half of the maximal response.[44]
In general terms: Cyclic AMP is a second messenger, typically raised through Gs and lowered through Gi signalling.

Another test addresses T3, 5-HT2AR (Homo sapiens, UniProt P28223).
T3 construct: host or cells: CHO-K1
The test can be described thus: [3H]-ketanserin radioligand binding assay, CHO-K1 cells. The note with it: mean of three experiments.

In test [3] the target is T2, 5-HT6R. Put plainly: Basal cAMP production (constitutive Gs signaling) in NG108-15 cells transiently expressing 5-HT6R, CAMYEL BRET. The class given is cell-based. Further details: expressed in transfected cells; host or cells: NG108-15 (transient, Lipofectamine 2000, cotransfected with the CAMYEL sensor). As to conditions: for functional profile: 5-HT6R-dependent Gs signaling, NG108-15 cells; for IC50: decrease of basal cAMP, NG108-15 cells transiently expressing 5-HT6R. How it is done: NG108-15 cells were grown in Dulbecco’s modified Eagle’s medium (DMEM) supplemented with 10% dialyzed fetal calf serum, 2% hypoxanthine/aminopterin/thymidine (Life Technologies), and antibiotics. cAMP measurement was performed in cells transiently expressing 5-HT6R using the bioluminescence resonance energy transfer (BRET) sensor for cAMP, CAMYEL (cAMP sensor using YFP-Epac-RLuc).[45] NG108-15 cells were cotransfected in suspension with 5-HT6R (0.5 μg DNA/million cells) and CAMYEL constructs (1 μg DNA/million cells), using Lipofectamine 2000 according to the manufacturer’s protocol, and plated in white 96-well plates (Greiner) at a density of 50 000 cells per well. […] Coelanterazine H (Molecular Probes) was added at a final concentration of 5 μM and left at room temperature for 5 min. BRET was measured using a Mithras LB 940 plate reader (Berthold Technologies).

For orientation: Ki means the equilibrium dissociation constant of an inhibitor or competing ligand from its target. Low readings indicate a stronger hold on the target, high ones a looser hold on the target. Usually Kb stands for the equilibrium dissociation constant of an antagonist, usually derived from a functional assay. Higher therefore signals lower antagonist affinity. For orientation: IC50 means the concentration at which inhibition is half-maximal. A low value points to inhibition by little substance.

T2 sequence (P50406 whole entry, the tested form may be a part): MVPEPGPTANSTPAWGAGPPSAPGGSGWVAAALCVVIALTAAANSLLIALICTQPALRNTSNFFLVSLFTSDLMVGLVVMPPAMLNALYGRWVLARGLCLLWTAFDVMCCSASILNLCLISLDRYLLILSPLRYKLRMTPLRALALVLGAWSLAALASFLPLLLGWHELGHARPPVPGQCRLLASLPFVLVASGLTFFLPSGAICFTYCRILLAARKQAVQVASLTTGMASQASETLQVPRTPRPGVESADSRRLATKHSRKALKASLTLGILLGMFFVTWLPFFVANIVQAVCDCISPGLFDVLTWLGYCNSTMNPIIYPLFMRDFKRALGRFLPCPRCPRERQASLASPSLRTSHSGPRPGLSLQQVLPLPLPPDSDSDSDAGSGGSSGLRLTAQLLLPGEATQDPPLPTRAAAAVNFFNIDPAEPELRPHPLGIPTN
T3 sequence (P28223 whole entry): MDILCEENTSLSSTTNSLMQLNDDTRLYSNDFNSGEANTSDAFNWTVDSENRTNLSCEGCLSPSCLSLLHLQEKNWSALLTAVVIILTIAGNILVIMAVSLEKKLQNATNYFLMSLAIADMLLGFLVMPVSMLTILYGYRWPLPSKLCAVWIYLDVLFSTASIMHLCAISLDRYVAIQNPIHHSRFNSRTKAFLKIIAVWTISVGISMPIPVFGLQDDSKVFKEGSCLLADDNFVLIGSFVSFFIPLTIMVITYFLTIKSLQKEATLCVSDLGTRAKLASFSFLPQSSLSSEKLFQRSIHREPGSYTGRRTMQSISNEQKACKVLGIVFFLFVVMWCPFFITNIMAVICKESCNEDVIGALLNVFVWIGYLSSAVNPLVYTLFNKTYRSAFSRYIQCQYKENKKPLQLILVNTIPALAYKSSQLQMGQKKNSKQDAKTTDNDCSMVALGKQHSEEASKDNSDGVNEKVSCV
T1 sequence (P34969 1-432): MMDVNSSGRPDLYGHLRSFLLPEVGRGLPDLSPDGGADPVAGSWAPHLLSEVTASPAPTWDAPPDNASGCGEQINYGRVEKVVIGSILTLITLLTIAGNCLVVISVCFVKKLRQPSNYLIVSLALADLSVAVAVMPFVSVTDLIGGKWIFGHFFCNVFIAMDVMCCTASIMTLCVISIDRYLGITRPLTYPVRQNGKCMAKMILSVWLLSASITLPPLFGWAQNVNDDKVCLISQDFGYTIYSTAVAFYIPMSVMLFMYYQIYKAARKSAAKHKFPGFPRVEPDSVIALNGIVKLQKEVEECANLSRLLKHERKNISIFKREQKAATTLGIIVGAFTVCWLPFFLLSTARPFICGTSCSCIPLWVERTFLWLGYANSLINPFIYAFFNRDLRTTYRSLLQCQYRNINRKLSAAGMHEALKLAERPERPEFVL

As for `O=C(N[C@@H]1CCNC1)c1ccn(S(=O)(=O)c2cccc(Cl)c2)c1-c1ccc(F)cc1` [Compound 27, (R)-2-(4-Fluorophenyl)-1-[(3-chlorophenyl)sulfonyl]-N-(pyrrolidin-3-yl)-1H-pyrrole-3-carboxamide], the Ki at 5-HT7R amounted to 42 µM; at 5-HT6R [1] it was 30 nM; at 5-HT2AR, 13.5 µM. The same compound displayed an antagonist equilibrium constant (Kb) on 5-HT6R [2] of 11.4 nM. Also, on 5-HT6R [3], the functional profile entry is on record as “inverse agonist”. At 5-HT6R [3], the concentration for half-maximal inhibition (IC50) was 265 nM.
On to `O=C(N[C@H]1CCNC1)c1ccn(S(=O)(=O)c2cccc(Cl)c2)c1-c1ccc(F)cc1` [Compound 28, (S)-2-(4-Fluorophenyl)-1-[(3-chlorophenyl)sulfonyl]-N-(pyrrolidin-3-yl)-1H-pyrrole-3-carboxamide], for which the Ki is 3.53 µM on 5-HT7R, 22 nM at 5-HT6R [1] and 8.57 µM at 5-HT2AR. For the same compound, the antagonist dissociation constant (Kb) on 5-HT6R [2] amounted to 7.6 nM. On 5-HT6R [3], the functional profile entry is “inverse agonist”. This compound also had an IC50 on 5-HT6R [3] of 140 nM.

The record behind these values is PMC8041276 (ACS Chemical Neuroscience, 2021).
